The source of these data is patent US6642221B1, “Vanadium compounds as anti-proliferative agents” (Parker Hughes Institute, priority 2000, dated 2003).

Experiment [1] has as its system Zebrafish embryos. Description: Zebrafish embryo model system: embryos exposed to compound in medium, cell division observed. The class given is in vivo, Zebrafish (Danio rerio). The following applies: for inhibition of mitosis in treated embryos: 10 μM to 4 mM in medium; for effect on embryo development: 120 minutes; for effect on embryo cell division: thirty minutes after treatment. Here is the method: Two-cell stage Zebrafish embryos were dechorionated with 1% trypsin-EDTA and treated with 1% DMSO at a temperature of 28.5° C. Zebrafish embryos were removed from their chorions by mild digestion in 1% Trypsin-EDTA (Sigma, St. Louis, Mo.) for 10 minutes at 28.5° C. (Standard temperature - ST), washed three times in “egg water” and twice in “embryonic medium” (EM) as described in Westerfield, M., The Zebrafish Book, Supra. The dechorionated two-cell stage cleaving eggs/embryos were transferred to the 24-well plastic cell culture plates (Costar, Cambridge, Mass.) filled with EM. Dechorionated embryos (10-12 per well) were exposed to VDC and VDacac at a constant ST for 0.5-24 hours. The final volume of the medium in each well was 500 μL. Both compounds were used at concentrations ranging from 10 μM to 4 mM. The compounds were dissolved in DMSO and then diluted serially with the incubation medium. The final concentration of DMSO in the wells was 1.2%. The sham-treated control embryos were incubated in EM in the presence of 1.2% DMSO.
(§1) Observations of cell division and development of the Zebrafish embryos were carried out using a SMZ-10A stereo microscope, once every 30 minutes within the first 3 hours of incubation and at 6, 12 and 24 hours, as well. […] The stereo microscope was fitted with a specially designed transparent heating tray in order to keep embryos at ST during observations. Pictures of the embryos were taken with a H-III Photomicrographic System (Nikon) using Ektachrome 64X film (Kodak, Rochester, N.Y.).

The test system of experiment [2] is Zebrafish embryos. Description: Microinjection of Zebrafish embryos, cell division and development observed. The class given is in vivo, Zebrafish (Danio rerio).
Excerpt: VDC and VDacac were microinjected into Zebrafish embryos at room temperature, using a SMZ-10A stereo microscope (Nikon, Melville, N.Y.) and Transjector 5246 (Eppendorf, Westbury, N.Y.). Dechorionated Zebrafish embryos at the two-cell stage were transferred to a Petri dish filled with embryonic medium. The bottom of the Petri dish was covered with an agar layer, and the embryos were placed in grooves in agar, exactly as described in Westerfield, M., The Zebrafish Book, Supra. Microinjections were performed under visual control. At the 2-4 cell stage, approximately 2 nL of the compound dissolved in Hank's Balanced Salt Solution (HBSS) (Gibco, Rockville, Md.) with 10% DMSO was injected into the cytoplasm of one of the blastomeres through a constantly flowing micropipette with a splinted sharp tip of 2-3 μm diameter. Sham-treated control embryos were injected with 2 nL of HBSS containing 10% DMSO. After the treatment, the embryos were transferred to standard temperature, 28.5° C.
as §1

For experiment [3], the system named is germinal vesicle stage bovine oocytes. The following applies: 24 hours; for oocytes matured to metaphase of meiosis II (MII): control 93%. Here is the method: Immature oocytes were recovered from bovine ovaries after slaughter by aspiration of 5 mm follicles. Only oocytes having a homogenous cytoplasm and surrounded by at least three layers of cumulus cells were selected. These were washed through three rinses of Hepes buffered Tyrode's media (114 mM NaCl, 3.2 mM KCl, 2 mM CaCl22H2O, […] MgCl26H2O, 25 mM NaHCO3, 0.4 mM NaH2PO4, 10 mM Na lactate, 100 I.U./ml Penicillin)(TL-Stock) modified with 10 mM Hepes, 1 mg/ml BSA, 0.2 mM pyruvate, and 25 μg/ml gentamicin (TL-Hepes; (16). Oocytes were matured for 24 hours in 50 μl drops of TC199 modified with 10% fetal bovine serum, 5 μg/ml FSH-p, 25μg/ml gentamicin, 1 μg/ml estrogen at 39° C. in 5% CO2 under mineral oil (17). After the oocytes were placed in the drops, 25 or 50 μM VDC was added in DMSO. Equal amounts of DMSO were added to control drops. Bovine oocytes were processed for immunocytochemistry after 24 hours.
Germinal vesicle stage bovine oocytes were matured in vitro in the presence of vehicle or VDC (25 μM or 50 μM). After 24 hours, these oocytes were fixed, labeled with anti-tubulin antibodies and the DNA dye TOTO−3. Oocytes were scored according to their stage in meoisis, microtubule organization and chromosome number.

Experiment [4] has as its system BT-20 breast cancer cells. Description: MTT cytotoxicity assay. The experiment is classed as cell-based, human. The following applies: BT20, 48 hours; read-out: IC50 (inhibition of cellular proliferation, MTT). Here is the method: (§2) BT-20 and MDA-MB-231 breast cancer cells (HTB-19, HTB-26 ATCC, Rockville, Md.) and U373 glioblastoma cells (HTB-17 ATCC Rockville, Md.) were grown in MEM media modified with 10% Fetal Bovine serum and 1% Penicillin/Streptomycin (Life Technologies, Rockville Md.). Cells were seeded onto sterile 22 mm square coverslips in 6-well plates. Cells on coverslips were kept in an incubator for 24 hours prior to treatment. The following day, VDC or VDacac was added from a stock solution made in DMSO to yield final concentration ranging from 3.9 to 500 μM (final DMSO concentration=0.025%). Cells were returned to a 37° C. incubator for 24 hours.
(§3) The cytotoxicity of VDC and VDacac against the human tumor cell lines discussed above was assayed using the MTT (3-[4,5-dimethylthiazol-2-yl]-2,5-diphenyl tetrazolium bromide) assay (Boehringer Mannheim Corp., Indianapolis, Ind.). Briefly, exponentially growing tumor cells were seeded into a 96-well plate at a density of 2.5×10^4 cells/well and incubated for 36 hr at 37° C. prior to drug exposure. On the day of treatment, culture medium was carefully aspirated from the wells and replaced with fresh medium containing VDC or VDacac at concentrations ranging from 3.9 to 500 μM. Triplicate wells were used for each treatment. The cells were incubated with the vanadium compounds for 48 hours at 37° C. in a humidified 5% CO2 atmosphere. To each well, 10 μl of MTT (0.5 mg/ml final concentration) was added and the plates were incubated at 37° C. for 4 hours to allow MTT to form formazan crystals by reacting with metabolically active cells. The formazan crystals were solubilized overnight at 37° C. in a solution containing 10% SDS in 0.01 M HCl. The absorbence of each well was measured in a microplate reader (Labsystems, Helsinki, Finland) at 540 nm and a reference wavelength of 690 nm. To translate the OD540 values into the number of live cells in each well, the OD540 values were compared to those on standard OD540—versus—cell number curves generated for each cell line. The percent survival was calculated using the formula: % survival=Live cell number[test]/Live cell number [control]×100. The IC50 values were calculated by non-linear regression analysis using Graphpad Prism software version 2.0 (Graphpad Software, Inc., San Diego, Calif.).
In general terms: Tetrazolium dyes change colour on reduction, which living cells bring about.

The subject of experiment [5] is MDA-MB-231 breast cancer cells. Description: MTT cytotoxicity assay. The class given is cell-based, human. The following applies: MDA-MB-231, 48 hours; read-out: IC50 (inhibition of cellular proliferation, MTT). Here is the method: as §2, §3
The subject of experiment [6] is U373 glioblastoma cells. Description: MTT cytotoxicity assay. The class given is cell-based, human. The note with it: U373, 48 hours; read-out: IC50 (inhibition of cellular proliferation, MTT). Here is the method: as §2, §3
Experiment [7] concerns BT-20 breast cancer cells. Description: Immunocytochemistry and confocal microscopic analysis of mitotic spindles. The following applies: BT-20 cells; for mitotic spindle morphology (α-tubulin, DNA): confocal microscopy. The class given is cell-based, human. Here is the method:
as §2
At the appropriate time point, coverslips containing BT-20 cells were fixed in −20° C. methanol for 15 minutes followed by 15 minutes incubation in phosphate buffered saline +0.1% Triton X-100 (PBS+Tx). Coverslips were next incubated with a primary antibody recognizing α-tubulin (Sigma, St.Louis Mo.) γ-tubulin (BAbCo, Berkeley Calif.), or NuMA (Calbiochem, SanDiego Calif.) for 40 minutes in a humidified chamber at 37° C. Coverslips were washed for 15 minutes in PBS-Tx followed by a 40 min incubation with a fluorescently labeled secondary antibody (Jackson Immunoresearch, West Grove Pa.). For double labeling the respective primary and secondary antibodies were combined. The coverslips were again rinsed in PBS-Tx and incubated with 5 μM Toto−3 (Molecular Probes, Eugene Oreg.) for 20 minutes to label the DNA. Coverslips were immediately inverted onto slides in Vectashield (Vector Labs, Burlingame, N.H.) to prevent photobleaching, sealed with nail polish and stored at 4° C. Bovine oocytes were processed for immunocytochemistry as described previously. Navara et al., Dev. Biol., 162: 29-40, 1994.
Slides were examined using a Bio-Rad MRC-1024 Laser Scanning Confocal Microscope mounted on a Nikon Eclipse E800 upright microscope with high numerical aperture objectives. Digital data was processed using Lasersharp (Bio-Rad, Hercules Calif.) and Photoshop (Adobe Systems Mountain View Calif.) software and printed on a Pictrography printer (Fuji Photo Elmsford, N.Y.).

The subject of experiment [8] is dynein ATPase activity found in sperm axonemes. The following applies: 100 μM.
Protocol: The effect of VDC on ATPase and GTPase activity was determined by isolating sperm axonemes after treatment of human sperm with 100 μM VDC. Sperm were pelleted by centrifugation 1900×g for 15 min, washed twice in cold PBS, resuspended in extraction buffer (1.0% Triton X-100, 0.1 M NaCl, 4 mM MgSO4, 1 mM CaCL2, 0.1 mM EDTA, 0.1 mM ATP, 7 mM 2-mercaptoethanol, and 5 mM imidazole buffer pH 7.0) and disrupted using a Dounce homogenizer. This homogenized suspension was centrifuged at 1500×g for 5 min to remove sperm heads and the resulting supernatant was recentrifuged at 12,000×g to recover the broken axonemes.
The axoneme pellet was resuspended in extraction buffer to remove residual membrane material, centrifuged at 1500×g for 5 min to remove residual sperm heads followed by centrifugation at 12,000×g to recover axonemes. The recovered axonemes were washed three times in extraction buffer lacking Triton X-100 and resuspended in solubilization buffer (0.6 M NaCl, 4 mM MgSO4, 1 mM CaCl2, 0.1 mM EDTA, 1 mM DTT, 7 mM 2-mercaptoetanol, 5 mM imidazole buffer pH 7.0) to solubilize the readily extractable motor protein dynein. The suspension was then centrifuged at 12,000×g. […] ATPase activity was measured using the EnzChek Phophate assay kit (Molecular Probes, Eugene Oreg.) according to manufacturers instructions.
Experiment [9] deals with tumor cell. The following applies: Kopf-Maier et al. 1983; cited from earlier work.
Experiment [10] concerns pharyngonasal cancer. The note with it: single assay, Sakurai et al. 1995; cited from earlier work.

pIC50: −log10 of the molar value. Read-outs that look alike come from different tables or passages of the source.

On to Vanadocene dichloride [VDC], for which the “inhibition of mitosis in treated embryos” value in [1] is on record as “inhibited mitosis in a concentration-dependent fashion”. For the same compound, in [1] (0.76 mM), the “effect on embryo development” value was “developed abnormal blastulae”. For the same compound, in experiment [1] (1.9 mM), the “effect on embryo cell division” value was “cell division defects followed by fusion of the embryonic cells”. For the same compound, the “effect on embryonic development after microinjection” value in [2] (0.64 pmol microinjected (lowest)) is “formation of a blastocoel-like cavity in the blastoderm and prevented gastrulation”; in experiment [2] (32 pmol microinjected (higher)) it was “cell division slow-down and total disarray of cell localization and development arrest”; in experiment [2] (58 pmol microinjected (highest)), “total cell fusion within 30 minutes of microinjection”. Moreover, the entries for the “oocytes matured to metaphase of meiosis II (MII)” value in experiment [3] (25 μM) and in experiment [3] (50 μM) were 16.2% and 10.0%, respectively. In experiment [3] (25 or 50 μM, control 4%), the “oocytes with abnormal meiotic spindles” value is reported as at least 50%. Also, the pIC50 in experiment [4] was 4.83; in experiment [5], 4.96; in [6] it was 4.73. The NuMA localization result in experiment [7] is on record as “only localized to one side of the mitotic spindle”. In addition, the “γ-tubulin spindle pole labeling” value in experiment [7] was “two foci of γ-tubulin on the same side of the chromosomes”. The “mitotic spindle morphology (α-tubulin, DNA)” value in [7] is listed as “aberrant monopolar mitotic structures”. In experiment [8] (four separate experiments), the “inhibition of ATPase activity found in axonemes” value came out at 12.2%. For the same compound, the “ATPase activity found in axonemes” value in experiment [8] (control 0.08±0.01) is on record as 0.07±0.02. Further, the tumor cell growth entry in experiment [9] was “arrest tumor cell growth”.

Take `O.O.O=S(=O)([O-])[O-].[O]=[V+2].c1cnc2c(c1)ccc1cccnc12` [[VO(Phen)(H2O)2](SO4), (diaqua)(1,10-phenanthroline)oxovanadium (IV) sulfate]: the “activity against pharyngonasal cancer” value in experiment [10] is “active agent against pharyngonasal cancer”.

With `CC(=O)C=C(C)[O-].O=S(=O)([O-])C(F)(F)F.[V+4].c1cc[cH-]c1.c1cc[cH-]c1` [VDacac, Vanadocene acetylacetonato monotriflate], in experiment [1], the “inhibition of mitosis in treated embryos” value is recorded as “inhibited mitosis in a concentration-dependent fashion”. The “effect on embryo development” value in [1] (0.4 mM) is “developed similar defects”. Besides, in [1] (0.6 mM), the “effect on embryo cell division” value is “cell division defects followed by fusion of the embryonic cells”. The “effect on embryonic development after microinjection” value in [2] (1 pmoL microinjected (lower)) was “formation of a blastocoel-like cavity in the blastoderm and prevented gastrulation”; in experiment [2] (49 pmoL microinjected (higher)), “deterioration of cell localization and development failure”. The pIC50 in experiment [4] was 4.57; in experiment [5] it was 5.04; in experiment [6], 4.45. The “mitotic spindle morphology (α-tubulin, DNA)” value in experiment [7] is “aberrant monopolar mitotic structures”.
